These results are taken from patent publication US11141394B2, “Carbon dioxide external preparation” (priority 2017, dated 2021).

The test system of assay [1] is pain of de Quervain syndrome. As to the kind of experiment: Pain relief test (de Quervain syndrome). The class given is in vivo, human. To be noted: person one; oral, earlier treatment. How it is done:
This test was conducted by a physical therapist. subject one was a person who has been suffering from de Quervain syndrome. Oral anti-inflammatory loxoprofen sodium had shown no effect on the pain of de Quervain syndrome. They had been suffering from sharp pain in the short rollical extensor muscle and the […] of the radial aspect of the hand joint. […] Therefore, pain relief effect of a carbon dioxide external preparation of the present invention was obvious.

Assay [2] has as its system pain and knee stiffness of rheumatism. As to the kind of experiment: Pain and knee stiffness of rheumatism improvement test. Particulars: person two; oral, earlier treatment. The class given is in vivo, human. From the text: Therefore, pain and knee stiffness of rheumatism improvement effect of a carbon dioxide external preparation of the present invention was obvious.

In the case of `CC(C(=O)O)c1ccc(CC2CCCC2=O)cc1` (centres unmarked) [loxoprofen sodium], the “effect on the pain of de Quervain syndrome” value in assay [1] is recorded as “no effect”. Further, the “pain and knee stiffness of rheumatism” value in assay [2] is listed as “had not been improved”.
